Target: T1, Pl-GAL-8 (Paracentrotus lividus, UniProt A0A0U5C3R9)
T1 construct: gene galectin-8; tags kept; expressed in E. coli BL21(DE3)
T1 sequence (A0A0U5C3R9 1-311): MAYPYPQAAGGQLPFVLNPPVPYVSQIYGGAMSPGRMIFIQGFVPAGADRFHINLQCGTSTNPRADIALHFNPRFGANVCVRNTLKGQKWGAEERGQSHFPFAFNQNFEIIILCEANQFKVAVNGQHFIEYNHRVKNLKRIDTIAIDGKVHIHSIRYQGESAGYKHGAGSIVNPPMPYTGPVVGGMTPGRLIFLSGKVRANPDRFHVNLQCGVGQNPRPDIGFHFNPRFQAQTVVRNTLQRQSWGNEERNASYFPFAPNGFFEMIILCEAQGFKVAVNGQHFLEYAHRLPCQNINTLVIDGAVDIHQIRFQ
Test: inhibition of hemagglutination of human red blood cells
Assay type: cell-based
Conditions: 0.25 uM protein; PBS, room temperature, 40 min; lowest dose tested (1-20 mM)

OC[C@H]1O[C@@H](O[C@H]2[C@H](O)[C@@H](O)C(O)O[C@@H]2CO)[C@H](O)[C@@H](O)[C@H]1O (stereo partly shown) [lactose]
effective inhibitory concentration: 1 mM

From paper PMC4671058, “Heterologous expression of newly identified galectin-8 from sea urchin embryos produces recombinant protein with lactose binding specificity and anti-adhesive activity” (Scientific Reports, 2015)
